# Key:
# Format in all cases: in vivo
# [1] = tested on: field corn (Zea mays L., var. Dekalb 535, CORN); experiment: Greenhouse herbicide screen, post-emerge application, crop damage rating; details: POST emergent, 14 days after application, scale 0-100
# Procedure, shortened: (§1)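 Scoring at 14 days used a 0–100 scale, 100 being all plants dead, for weed control and crop injury alike. Rates ranged from 15 to 1000 g ai/ha, applied in acetone at 187 l/ha by track sprayer. Post-emerge treatment hit 2–3 leaf plants; pre-emerge treatment hit soil seeded one day earlier.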
# [2] = tested on: upland rice (Oryza sp., var.Cocodrie, RICE); experiment: as above; details: POST emergent, 14 days after application, scale 0-100
# Procedure, shortened: as §1
# [3] = tested on: field corn (Zea mays L., var. Dekalb 535, CORN); experiment: Greenhouse herbicide screen, pre-emerge application, crop damage rating; details: PRE emergent, 14 days after application, rating scale 0-100
# Procedure, shortened: as §1
# [4] = tested on: upland rice (Oryza sp., var.Cocodrie, RICE); experiment: as above; details: PRE emergent, 14 days after application, rating scale 0-100
# Procedure, shortened: as §1
# [5] = tested on: barnyardgrass (Echinochloa crus-galli, ECHCG); experiment: Greenhouse herbicide screen, pre-emerge application, phytotoxicity rating; details: PRE emergent, 14 days after application, rating scale 0-100
# Procedure, shortened: as §1
# [6] = tested on: redroot pigweed (Amaranthus retrofiexus, AMARE); experiment: as above; details: PRE emergent, 14 days after application, rating scale 0-100
# Procedure, shortened: as §1
# [7] = tested on: common ragweed (Ambrosia artemisiifolia L., AMBEL); experiment: as above; details: PRE emergent, 14 days after application, rating scale 0-100
# Procedure, shortened: as §1
# [8] = tested on: sicklepod (Cassia obtusifolia, CASOB); experiment: as above; details: PRE emergent, 14 days after application, rating scale 0-100
# Procedure, shortened: as §1
# [9] = tested on: green foxtail (Setaria viridis, SETVI); experiment: as above; details: PRE emergent, 14 days after application, rating scale 0-100
# Procedure, shortened: as §1
# [10] = tested on: velvetleaf (Abutilon theophrasti, ABUTH); experiment: as above; details: PRE emergent, 14 days after application, rating scale 0-100
# Procedure, shortened: as §1
# [11] = tested on: johnsongrass (Sorghum halepense, SORHA); experiment: as above; details: PRE emergent, 14 days after application, rating scale 0-100
# Procedure, shortened: as §1
# [12] = tested on: large crabgrass (Digitaria sanguinalis, DIGSA); experiment: as above; details: PRE emergent, 14 days after application, rating scale 0-100
# Procedure, shortened: as §1
# [13] = tested on: ivyleaf morningglory (Ipomoea hederacea, IPOHE); experiment: as above; details: PRE emergent, 14 days after application, rating scale 0-100
# Procedure, shortened: as §1
# [14] = tested on: cocklebur (Xanthium strumarium, XANST); experiment: as above; details: PRE emergent, 14 days after application, rating scale 0-100
# Procedure, shortened: as §1
# [15] = tested on: lambsquarters (Chenopodium album, CHEAL); experiment: as above; details: PRE emergent, 14 days after application, rating scale 0-100
# Procedure, shortened: as §1
# [16] = tested on: barnyardgrass (Echinochloa crus-galli, ECHCG); experiment: Greenhouse herbicide screen, post-emerge application, phytotoxicity rating; details: POST emergent, 14 days after application, scale 0-100
# Procedure, shortened: as §1
# [17] = tested on: redroot pigweed (Amaranthus retrofiexus, AMARE); experiment: as above; details: POST emergent, 14 days after application
# Procedure, shortened: as §1
# [18] = tested on: common ragweed (Ambrosia artemisiifolia L., AMBEL); experiment: as above; details: POST emergent, 14 days after application, scale 0-100
# Procedure, shortened: as §1
# [19] = tested on: sicklepod (Cassia obtusifolia, CASOB); experiment: as above; details: POST emergent, 14 days after application, scale 0-100
# Procedure, shortened: as §1
# [20] = tested on: green foxtail (Setaria viridis, SETVI); experiment: as above; details: POST emergent, 14 days after application, scale 0-100
# Procedure, shortened: as §1
# [21] = tested on: velvetleaf (Abutilon theophrasti, ABUTH); experiment: as above; details: POST emergent, 14 days after application, scale 0-100
# Procedure, shortened: as §1
# [22] = tested on: johnsongrass (Sorghum halepense, SORHA); experiment: as above; details: POST emergent, 14 days after application, scale 0-100
# Procedure, shortened: as §1
# [23] = tested on: large crabgrass (Digitaria sanguinalis, DIGSA); experiment: as above; details: POST emergent, 14 days after application, scale 0-100
# Procedure, shortened: as §1
# [24] = tested on: ivyleaf morningglory (Ipomoea hederacea, IPOHE); experiment: as above; details: POST emergent, 14 days after application, scale 0-100
# Procedure, shortened: as §1
# [25] = tested on: cocklebur (Xanthium strumarium, XANST); experiment: as above; details: POST emergent, 14 days after application, scale 0-100
# Procedure, shortened: as §1
# [26] = tested on: lambsquarters (Chenopodium album, CHEAL); experiment: as above; details: POST emergent, 14 days after application, scale 0-100
# Procedure, shortened: as §1
# [27] = 63 g ai/ha, scale 0-100 (0 no damage, 100 complete death)
smiles,measurement,setting,value
CC(=O)OC(=NN(C)C)c1cc(-n2c(=O)cc(C(F)(F)F)n(C)c2=O)ccc1Cl [Compound 4-4],crop damage rating CORN,[1]; 63 g ai/ha,25
same,crop damage rating CORN,[1]; 250 g ai/ha,90
same,crop damage rating RICE,[2]; 63 g ai/ha,10
same,crop damage rating RICE,[2]; 250 g ai/ha,55
same,crop damage rating CORN,[3]; 63 g ai/ha,25
same,crop damage rating CORN,[3]; 250 g ai/ha,90
same,crop damage rating RICE,[4]; 63 g ai/ha,10
same,crop damage rating RICE,[4]; 250 g ai/ha,55
same,phytotoxicity rating ECHCG,[5]; 63 g ai/ha,30
same,phytotoxicity rating ECHCG,[5]; 250 g ai/ha,90
same,phytotoxicity rating AMARE,[6]; 63 g ai/ha,100
same,phytotoxicity rating AMARE,[6]; 250 g ai/ha,100
same,phytotoxicity rating AMBEL,[7]; 63 g ai/ha,75
same,phytotoxicity rating AMBEL,[7]; 250 g ai/ha,100
same,phytotoxicity rating CASOB,[8]; 63 g ai/ha,65
same,phytotoxicity rating CASOB,[8]; 250 g ai/ha,98
same,phytotoxicity rating SETVI,[9]; 63 g ai/ha,50
same,phytotoxicity rating SETVI,[9]; 250 g ai/ha,90
same,phytotoxicity rating ABUTH,[10]; 63 g ai/ha,100
same,phytotoxicity rating ABUTH,[10]; 250 g ai/ha,100
same,phytotoxicity rating SORHA,[11]; 63 g ai/ha,60
same,phytotoxicity rating SORHA,[11]; 250 g ai/ha,90
same,phytotoxicity rating DIGSA,[12]; 63 g ai/ha,98
same,phytotoxicity rating DIGSA,[12]; 250 g ai/ha,100
same,phytotoxicity rating IPOHE,[13]; 63 g ai/ha,100
same,phytotoxicity rating IPOHE,[13]; 250 g ai/ha,100
same,phytotoxicity rating XANST,[14]; 63 g ai/ha,0
same,phytotoxicity rating XANST,[14]; 250 g ai/ha,60
same,phytotoxicity rating CHEAL,[15]; 63 g ai/ha,100
same,phytotoxicity rating CHEAL,[15]; 250 g ai/ha,100
same,phytotoxicity rating ECHCO,[16]; 63 g ai/ha,30
same,phytotoxicity rating ECHCO,[16]; 250 g ai/ha,90
same,phytotoxicity rating AMARE,[17]; [27],100
same,phytotoxicity rating AMARE,"[17]; 250 g ai/ha, scale 0-100",100
same,phytotoxicity rating AMBEL,[18]; 63 g ai/ha,75
same,phytotoxicity rating AMBEL,[18]; 250 g ai/ha,100
same,phytotoxicity rating CASOB,[19]; 63 g ai/ha,65
same,phytotoxicity rating CASOB,[19]; 250 g ai/ha,98
same,phytotoxicity rating SETVI,[20]; 63 g ai/ha,50
same,phytotoxicity rating SETVI,[20]; 250 g ai/ha,90
same,phytotoxicity rating ABUTH,[21]; 63 g ai/ha,100
same,phytotoxicity rating ABUTH,[21]; 250 g ai/ha,100
same,phytotoxicity rating SORHA,[22]; 63 g ai/ha,60
same,phytotoxicity rating SORHA,[22]; 250 g ai/ha,90
same,phytotoxicity rating DIGSA,[23]; 63 g ai/ha,98
same,phytotoxicity rating DIGSA,[23]; 250 g ai/ha,100
same,phytotoxicity rating IPOHE,[24]; 63 g ai/ha,100
same,phytotoxicity rating IPOHE,[24]; 250 g ai/ha,100
same,phytotoxicity rating XANST,[25]; 63 g ai/ha,0
same,phytotoxicity rating XANST,[25]; 250 g ai/ha,60
same,phytotoxicity rating CHEAL,[26]; 63 g ai/ha,100
same,phytotoxicity rating CHEAL,[26]; 250 g ai/ha,100
CC1CCCC(C)N1N=C(OC(=O)C(Cl)Cl)c1cc(-n2c(=O)cc(C(F)(F)F)n(C)c2=O)c(F)cc1Cl (centres unmarked) [Compound 4-8],crop damage rating CORN,[1]; 63 g ai/ha,90
same,crop damage rating CORN,[1]; 250 g ai/ha,100
same,crop damage rating RICE,[2]; 63 g ai/ha,0
same,crop damage rating RICE,[2]; 250 g ai/ha,15
same,crop damage rating CORN,[3]; 63 g ai/ha,0
same,crop damage rating CORN,[3]; 250 g ai/ha,50
same,crop damage rating RICE,[4]; 63 g ai/ha,0
same,crop damage rating RICE,[4]; 250 g ai/ha,0
same,phytotoxicity rating ECHCG,[5]; 63 g ai/ha,0
same,phytotoxicity rating ECHCG,[5]; 250 g ai/ha,15
same,phytotoxicity rating AMARE,[6]; 63 g ai/ha,100
same,phytotoxicity rating AMARE,[6]; 250 g ai/ha,100
same,phytotoxicity rating AMBEL,[7]; 63 g ai/ha,60
same,phytotoxicity rating AMBEL,[7]; 250 g ai/ha,99
same,phytotoxicity rating CASOB,[8]; 63 g ai/ha,60
same,phytotoxicity rating CASOB,[8]; 250 g ai/ha,90
same,phytotoxicity rating SETVI,[9]; 63 g ai/ha,65
same,phytotoxicity rating SETVI,[9]; 250 g ai/ha,100
same,phytotoxicity rating ABUTH,[10]; 63 g ai/ha,100
same,phytotoxicity rating ABUTH,[10]; 250 g ai/ha,100
same,phytotoxicity rating SORHA,[11]; 63 g ai/ha,0
same,phytotoxicity rating SORHA,[11]; 250 g ai/ha,80
same,phytotoxicity rating DIGSA,[12]; 63 g ai/ha,50
same,phytotoxicity rating DIGSA,[12]; 250 g ai/ha,99
same,phytotoxicity rating IPOHE,[13]; 63 g ai/ha,95
same,phytotoxicity rating IPOHE,[13]; 250 g ai/ha,100
same,phytotoxicity rating XANST,[14]; 63 g ai/ha,30
same,phytotoxicity rating XANST,[14]; 250 g ai/ha,60
same,phytotoxicity rating CHEAL,[15]; 63 g ai/ha,100
same,phytotoxicity rating CHEAL,[15]; 250 g ai/ha,100
same,phytotoxicity rating ECHCO,[16]; 63 g ai/ha,70
same,phytotoxicity rating ECHCO,[16]; 250 g ai/ha,90
same,phytotoxicity rating AMARE,[17]; [27],100
same,phytotoxicity rating AMARE,"[17]; 250 g ai/ha, scale 0-100",100
same,phytotoxicity rating AMBEL,[18]; 63 g ai/ha,80
same,phytotoxicity rating AMBEL,[18]; 250 g ai/ha,100
same,phytotoxicity rating CASOB,[19]; 63 g ai/ha,70
same,phytotoxicity rating CASOB,[19]; 250 g ai/ha,75
same,phytotoxicity rating SETVI,[20]; 63 g ai/ha,15
same,phytotoxicity rating SETVI,[20]; 250 g ai/ha,60
same,phytotoxicity rating ABUTH,[21]; 63 g ai/ha,100
same,phytotoxicity rating ABUTH,[21]; 250 g ai/ha,100
same,phytotoxicity rating SORHA,[22]; 63 g ai/ha,10
same,phytotoxicity rating SORHA,[22]; 250 g ai/ha,65
same,phytotoxicity rating DIGSA,[23]; 63 g ai/ha,0
same,phytotoxicity rating DIGSA,[23]; 250 g ai/ha,75
same,phytotoxicity rating IPOHE,[24]; 63 g ai/ha,100
same,phytotoxicity rating IPOHE,[24]; 250 g ai/ha,100
same,phytotoxicity rating XANST,[25]; 63 g ai/ha,100
same,phytotoxicity rating XANST,[25]; 250 g ai/ha,100
same,phytotoxicity rating CHEAL,[26]; 63 g ai/ha,100
same,phytotoxicity rating CHEAL,[26]; 250 g ai/ha,100
